Test results reported in patent publication US12590864B2, “Wind tunnel for assessment of insecticides” (EAST CAROLINA UNIVERSITY, priority 2023, dated 2026).

Legend:
Cx. pipiens complex = details: five field populations; cited from earlier work
Aedes albopictus = test: CDC bottle bioassay (AI residue); type: in vivo; details: 30 min DT, Ae. albopictus; for mortality at the DT: 8 μg/mL residue
Procedure: (§1) Separate mosquitoes from the same populations used in wind tunnel experiments were also used in bottle bioassays, except for Ae. albopictus, F1, Craven County, NC that were used in wind tunnel but not bottle bioassays due to low sample size. Female mosquitoes (4-5 d old) were aspirated from colony cages, transferred to 500 mL glass Wheaton bottles (N=11-20 mosquitoes in each of three to four replicate bottles), and exposed constantly to technical grade permethrin AI residue (8 μg/mL) (Chem Service, Westchester, Pennsylvania) for a 120 min period using established CDC bottle bioassay methods and mortality was monitored/recorded at 0, 15, 30, 60, and 120 min (CDC 2013, 2019; Richards et al. 2017ab, 2019). Bottle bioassay control groups were transferred to clean bottles following the same established methods (CDC 2013, 2019; Richards et al. 2017ab, 2019). Diagnostic dose and diagnostic time (DT) were determined using susceptible populations of Ae. albopictus and Cx. quinquefasciatus (data not shown).
(§2) Female mosquitoes (4-5 d old) were aspirated from a separate colony cages, transferred to 500 mL glass Wheaton bottles, and exposed to AI residue using established CDC bottle bioassay methods and mortality was monitored/recorded at 15, 30, 60, and 120 min (FIG. 8). Bottle bioassay control groups were transferred to clean bottles following established methods (CDC 2013, 2019). At the 30 min DT for permethrin, Ae. albopictus, F48, Orleans Parish, Ae. albopictus, F0, New Hanover County, and Cx. pipiens quinquefasciatus, F219, Johannesburg were classified as susceptible (100% mortality at the DT); however, Cx. pipiens/quinquefasciatus, F1, New Hanover County (69% mortality) and Cx. pipiens/quinquefasciatus, F1, Pitt County County (57% mortality) were classified as resistant. FIG. 9 is a bar graph of the mortality of types of mosquitoes in the wind tunnel during bioassay exposure to permethrin.

[1] = test system: Culex pipiens/quinquefasciatus; test: CDC bottle bioassay (AI residue); type: in vivo; details: 30 min DT; for mortality at the DT: 8 μg/mL residue
Procedure: as §1, §2

[2] = Cx. pipiens quinquefasciatus, F219, Johannesburg
[3] = Cx. pipiens/quinquefasciatus, F1, New Hanover County
[4] = Cx. pipiens/quinquefasciatus, F1, Pitt County

SMILES	resistance classification (Cx. pipiens complex)	mortality at the DT (Aedes albopictus; F0, New Hanover County)	mortality at the DT (Aedes albopictus; F48, Orleans Parish)	resistance classification (Aedes albopictus; F0, New Hanover County)	resistance classification (Aedes albopictus; F48, Orleans Parish)	mortality at the DT [1, 2]	mortality at the DT [1, 3]	mortality at the DT [1, 4]	resistance classification [1, 2]	resistance classification [1, 3]	resistance classification [1, 4]
CC(C)=CC1C(C(=O)OCc2cccc(Oc3ccccc3)c2)C1(C)C (stereo not drawn) [Sumethrin®, d-phenothrin]	resistant	–	–	–	–	–	–	–	–	–	–
CC1(C)C(C=C(Cl)Cl)C1C(=O)OCc1cccc(Oc2ccccc2)c1 (centres unmarked) [permethrin]	–	100%	100%	susceptible	susceptible	100%	69%	57%	susceptible	resistant	resistant
